SMILES strings stand for the structures. Where “and” joins values, the source holds several entries; their conditions need not be identical. Equal entries are not always repeated. Structures can show the parent of a compound that is named as a salt. A value given as a limit tells only on which side of the number the result lay.

The experiment addresses human KDR protein in HEK-293 cells (Homo sapiens (Human), UniProt P35968). Put plainly: KDR Cell Assay (phospho-KDR in HEK-293 cells expressing inducible KDR). In kind it is cell-based. The following applies: pKDR Cell HEK 10% FBS IC50, HEK-293 cells expressing inducible KDR, VEGF stimulated. In outline:
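HEK-293 cells with inducible human KDR were treated with compound for 1 h in DMEM (0.25% DMSO final), then lysed. Phospho-KDR was quantified by Meso Scale immunoassay, expressed as percent of control, and IC50 taken where a 4-parameter logistic fit crossed 50 POC.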

human KDR protein in HEK-293 cells, sequence (P35968 20-1356): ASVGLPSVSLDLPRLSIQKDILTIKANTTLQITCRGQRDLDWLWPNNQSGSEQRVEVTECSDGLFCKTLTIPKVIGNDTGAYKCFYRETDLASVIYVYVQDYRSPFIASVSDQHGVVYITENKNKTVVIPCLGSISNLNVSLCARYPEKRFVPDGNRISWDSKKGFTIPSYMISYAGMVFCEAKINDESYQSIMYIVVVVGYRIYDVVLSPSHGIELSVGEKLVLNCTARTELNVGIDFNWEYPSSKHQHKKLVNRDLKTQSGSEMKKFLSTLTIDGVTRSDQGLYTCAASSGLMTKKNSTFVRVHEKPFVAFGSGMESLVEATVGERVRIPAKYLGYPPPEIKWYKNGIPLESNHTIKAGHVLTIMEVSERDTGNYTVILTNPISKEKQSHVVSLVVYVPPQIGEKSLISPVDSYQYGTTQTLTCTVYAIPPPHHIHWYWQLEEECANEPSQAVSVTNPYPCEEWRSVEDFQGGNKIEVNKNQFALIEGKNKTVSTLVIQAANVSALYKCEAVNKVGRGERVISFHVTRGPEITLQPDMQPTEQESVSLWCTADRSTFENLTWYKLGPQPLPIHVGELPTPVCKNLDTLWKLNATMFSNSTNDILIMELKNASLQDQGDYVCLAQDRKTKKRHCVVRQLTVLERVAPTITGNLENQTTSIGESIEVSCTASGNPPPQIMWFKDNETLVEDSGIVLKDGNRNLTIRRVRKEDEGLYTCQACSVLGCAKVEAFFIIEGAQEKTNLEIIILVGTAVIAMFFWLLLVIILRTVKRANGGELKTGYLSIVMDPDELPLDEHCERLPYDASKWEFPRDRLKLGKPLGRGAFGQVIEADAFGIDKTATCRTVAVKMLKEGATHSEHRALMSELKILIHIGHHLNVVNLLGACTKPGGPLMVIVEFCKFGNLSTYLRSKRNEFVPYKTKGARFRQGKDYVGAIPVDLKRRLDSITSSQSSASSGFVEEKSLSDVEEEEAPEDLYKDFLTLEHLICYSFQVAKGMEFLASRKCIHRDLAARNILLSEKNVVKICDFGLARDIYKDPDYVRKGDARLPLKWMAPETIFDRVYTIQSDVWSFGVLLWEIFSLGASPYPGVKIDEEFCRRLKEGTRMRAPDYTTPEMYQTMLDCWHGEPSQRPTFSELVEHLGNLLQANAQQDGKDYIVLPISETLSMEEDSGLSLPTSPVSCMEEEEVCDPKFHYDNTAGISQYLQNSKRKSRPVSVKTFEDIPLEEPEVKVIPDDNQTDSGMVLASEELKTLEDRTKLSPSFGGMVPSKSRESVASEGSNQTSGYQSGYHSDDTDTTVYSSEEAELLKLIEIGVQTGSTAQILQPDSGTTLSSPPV

For the compound `Cn1cc(-c2cc(-c3ccc(N4CCC5(CCCN(C(=O)OC(C)(C)C)C5)C4)nc3)c3c(C#N)cnn3c2)cn1` (centres unmarked) [Example 518, tert-butyl 2-(5-(3-cyano-6-(1-methyl-1H-pyrazol-4-yl)pyrazolo[1,5-a]pyridin-4-yl)pyridin-2-yl)-2,7-diazaspiro[4.5]decane-7-carboxylate], the IC50 came to 4630 nM.
As for `Cn1cc(-c2cc(-c3ccc(N4CCC5(CCN(C(=O)OC(C)(C)C)C5)C4)nc3)c3c(C#N)cnn3c2)cn1` (centres unmarked) [Example 519, tert-butyl 7-(5-(3-cyano-6-(1-methyl-1H-pyrazol-4-yl)pyrazolo[1,5-a]pyridin-4-yl)pyridin-2-yl)-2,7-diazaspiro[4.4]nonane-2-carboxylate], the figure is 1250 nM; as for `Cn1cc(-c2cc(-c3ccc(N4CCC5(CN(C(=O)OC(C)(C)C)C5)C4)nc3)c3c(C#N)cnn3c2)cn1` [Example 521, tert-butyl 6-(5-(3-cyano-6-(1-methyl-1H-pyrazol-4-yl)pyrazolo[1,5-a]pyridin-4-yl)pyridin-2-yl)-2,6-diazaspiro[3.4]octane-2-carboxylate], 675 nM; as for `Cn1cc(-c2cc(-c3ccc(N4CC5(CCCN5C(=O)OCc5ccccc5)C4)nc3)c3c(C#N)cnn3c2)cn1` [Example 525, benzyl 2-(5-(3-cyano-6-(1-methyl-1H-pyrazol-4-yl)pyrazolo[1,5-a]pyridin-4-yl)pyridin-2-yl)-2,5-diazaspiro[3.4]octane-5-carboxylate 2,2,2-trifluoroacetate], 1580 nM.
`Cn1cc(-c2cc(-c3ccc(N4CC5(CN(C(=O)OC(C)(C)C)C5)C4)nc3)c3c(C#N)cnn3c2)cn1` [Example 526, tert-butyl 6-(5-(3-cyano-6-(1-methyl-1H-pyrazol-4-yl)pyrazolo[1,5-a]pyridin-4-yl)pyridin-2-yl)-2,6-diazaspiro[3.3]heptane-2-carboxylate]: the half-inhibitory concentration (IC50) was not below 5000 nM.
`Cn1cc(-c2cc(-c3ccc(N4CC5(CCOCC5)C4)nc3)c3c(C#N)cnn3c2)cn1` [Example 527, 4-(6-(7-oxa-2-azaspiro[3.5]nonan-2-yl)pyridin-3-yl)-6-(1-methyl-1H-pyrazol-4-yl)pyrazolo[1,5-a]pyridine-3-carbonitrile 2,2,2-trifluoroacetate]: the concentration for half-maximal inhibition (IC50) amounted to 918 nM. This counts as sub-micromolar.
The result for `Cn1cc(-c2cc(-c3ccc(N4CC5(CCOC5)C4)nc3)c3c(C#N)cnn3c2)cn1` [Example 528, 4-(6-(6-oxa-2-azaspiro[3.4]octan-2-yl)pyridin-3-yl)-6-(1-methyl-1H-pyrazol-4-yl)pyrazolo[1,5-a]pyridine-3-carbonitrile 2,2,2-trifluoroacetate] reads 1670 nM; that for `Cn1cc(-c2cc(-c3ccc(N4CCC5(CCCOC5)C4)nc3)c3c(C#N)cnn3c2)cn1` (centres unmarked) [Example 529, 4-(6-(7-oxa-2-azaspiro[4.5]decan-2-yl)pyridin-3-yl)-6-(1-methyl-1H-pyrazol-4-yl)pyrazolo[1,5-a]pyridine-3-carbonitrile], not below 5000 nM; that for `Cn1cc(-c2cc(-c3ccc(N4CCC5(CCOC5)C4)nc3)c3c(C#N)cnn3c2)cn1` (centres unmarked) [Example 530, 4-(6-(2-oxa-7-azaspiro[4.4]nonan-7-yl)pyridin-3-yl)-6-(1-methyl-1H-pyrazol-4-yl)pyrazolo[1,5-a]pyridine-3-carbonitrile 2,2,2-trifluoroacetate], 1540 nM.
The result for `Cn1cc(-c2cc(-c3ccc(N4CCC(O)(C(F)(F)F)C4)nc3)c3c(C#N)cnn3c2)cn1` (centres unmarked) [Example 531, 4-(6-(3-hydroxy-3-(trifluoromethyl)pyrrolidin-1-yl)pyridin-3-yl)-6-(1-methyl-1H-pyrazol-4-yl)pyrazolo[1,5-a]pyridine-3-carbonitrile 2,2,2-trifluoroacetate] reads 690 nM.
The result for `Cn1cc(-c2cc(-c3ccc(N4CCC(c5ccccc5)C4)nc3)c3c(C#N)cnn3c2)cn1` (centres unmarked) [Example 533, 6-(1-methyl-1H-pyrazol-4-yl)-4-(6-(3-phenylpyrrolidin-1-yl)pyridin-3-yl)pyrazolo[1,5-a]pyridine-3-carbonitrile 2,2,2-trifluoroacetate] reads 4860 nM; that for `Cn1cc(-c2cc(-c3ccc(N4CCC(c5ccc(Cl)cc5)CC4)nc3)c3c(C#N)cnn3c2)cn1` [Example 534, 4-(6-(4-(4-chlorophenyl)piperidin-1-yl)pyridin-3-yl)-6-(1-methyl-1H-pyrazol-4-yl)pyrazolo[1,5-a]pyridine-3-carbonitrile 2,2,2-trifluoroacetate], 12.5 nM; that for `Cn1cc(-c2cc(-c3ccc(N4CCC(Cc5ccccc5)CC4)nc3)c3c(C#N)cnn3c2)cn1` [Example 535, 4-(6-(4-benzylpiperidin-l-yl)pyridin-3-yl)-6-(1-methyl-1H-pyrazol-4-yl)pyrazolo[1,5-a]pyridine-3-carbonitrile], 374 nM.
As for `Cn1cc(-c2cc(-c3ccc(N4CCC(Cc5ccc(Cl)cc5)CC4)nc3)c3c(C#N)cnn3c2)cn1` [Example 536, 4-(6-(4-(4-chlorobenzyl)piperidin-1-yl)pyridin-3-yl)-6-(1-methyl-1H-pyrazol-4-yl)pyrazolo[1,5-a]pyridine-3-carbonitrile], the half-inhibitory concentration (IC50) was 787 nM and 656 nM.
The result for `Cn1cc(-c2cc(-c3ccc(N4CCC5(CCNCC5)CC4)nc3)c3c(C#N)cnn3c2)cn1` [Example 539, 4-(6-(3,9-diazaspiro[5.5]undecan-3-yl)pyridin-3-yl)-6-(1-methyl-1H-pyrazol-4-yl)pyrazolo[1,5-a]pyridine-3-carbonitrile dihydrochloride] reads 1640 nM; that for `Cn1cc(-c2cc(-c3ccc(N4CCCC5(CCNCC5)C4)nc3)c3c(C#N)cnn3c2)cn1` [Example 540, 4-(6-(2,9-diazaspiro[5.5]undecan-2-yl)pyridin-3-yl)-6-(1-methyl-1H-pyrazol-4-yl)pyrazolo[1,5-a]pyridine-3-carbonitrile dihydrochloride], 1220 nM; that for `Cn1cc(-c2cc(-c3ccc(N4CCC5(CCCN5)CC4)nc3)c3c(C#N)cnn3c2)cn1` [Example 541, 4-(6-(1,8-diazaspiro[4.5]decan-8-yl)pyridin-3-yl)-6-(1-methyl-1H-pyrazol-4-yl)pyrazolo[1,5-a]pyridine-3-carbonitrile dihydrochloride], 534 nM.
`Cn1cc(-c2cc(-c3ccc(N4CCCC5(CCCN5)C4)nc3)c3c(C#N)cnn3c2)cn1` (centres unmarked) [Example 542, 4-(6-(1,7-diazaspiro[4.5]decan-7-yl)pyridin-3-yl)-6-(1-methyl-1H-pyrazol-4-yl)pyrazolo[1,5-a]pyridine-3-carbonitrile dihydrochloride] came in with an IC50 of 222 nM.
As for `Cn1cc(-c2cc(-c3ccc(N4CCC5(CC4)CC(N)C5)nc3)c3c(C#N)cnn3c2)cn1` [Example 544, 4-(6-(2-amino-7-azaspiro[3.5]nonan-7-yl)pyridin-3-yl)-6-(1-methyl-1H-pyrazol-4-yl)pyrazolo[1,5-a]pyridine-3-carbonitrile dihydrochloride], the figure is 234 nM.
As for `Cn1cc(-c2cc(-c3ccc(N4CCC5(CCCNC5)C4)nc3)c3c(C#N)cnn3c2)cn1` (centres unmarked) [Example 546, 4-(6-(2,7-diazaspiro[4.5]decan-2-yl)pyridin-3-yl)-6-(1-methyl-1H-pyrazol-4-yl)pyrazolo[1,5-a]pyridine-3-carbonitrile dihydrochloride], the figure is 811 nM.

Usually IC50 stands for the concentration that inhibits the measured activity by half. Read a high IC50 as a need for much substance.

(Values after patent US10023570B2 (Array BioPharma, Inc., priority 2015, dated 2018).)
